The source of these data is patent US20260240799A1, “TREATMENT OF PRIMARY BILIARY CHOLANGITIS” (Genfit, priority 2023, published 2026).

Entries after “also recorded” stand apart in the source; their conditions may differ.

For series [1], the system named is participants with primary biliary cholangitis. The experiment in a line: PROMIS Fatigue SF 7a T-score in phase 3 trial NCT04526665 (ELATIVE). It counts as in vivo, human. Set-up: key to PROMIS Fatigue T-score, observed mean / PROMIS Fatigue T-score, observed median: standardized T-score, mean 50, SD 10; higher = more fatigue. Particulars: for Change from baseline in PROMIS Fatigue T-score, mean / Change from baseline in PROMIS Fatigue T-score, median / Change from baseline in PROMIS Fatigue T-score, LS means (MMRM) / Change from baseline in PROMIS Fatigue T-score, LS means difference with placebo (MMRM) / PROMIS Fatigue T-score, observed mean / PROMIS Fatigue T-score, observed median: 80 mg once daily. From the text:
The patient's fatigue can be measured using the PROMIS Short Form—Fatigue 7a questionnaire (V1.0) to assess change from baseline in fatigue during treatment. The PROMIS Fatigue item banks assess a range of self-reported symptoms over the past seven days, from mild subjective feelings of tiredness to an overwhelming, debilitating, and sustained sense of exhaustion that likely decreases one's ability to execute daily activities and function normally in family or social roles. Fatigue is divided into the experience of fatigue (frequency, duration, and intensity) and the impact of fatigue on physical, mental, and social activities. PROMIS instruments are scored using item-level calibrations. The final score is represented by the T-score, a standardized score with a mean of 50 and a standard deviation (SD) of 10. A 1-point decrease of the PROMIS Fatigue T-score represents a meaningful change in fatigue. This improvement corresponds to changes in alertness and well-being that are easily noticeable. Likewise, a noticeable worsening corresponds to a 1-point increase of the PROMIS Fatigue T-score (Schattenberg et al.; “Evaluating Pruritus and Fatigue in Patients with Treatment-Refractory Primary Biliary Cholangitis” EASL 21-24 Jun. 2023).
Participants aged 18 to 75 years, who had been diagnosed with primary biliary cholangitis according to established criteria, were recruited at 82 sites in 14 countries. Inclusion criteria were an alkaline phosphatase level of ≥1.67 times the upper limit of the normal range (ULN), and a total bilirubin level of ≤2 times the ULN. Prior to screening, eligible participants had received 13 to 15 mg/kg ursodeoxycholic acid treatment per day for at least 12 months (stable dose for at least 3 months) or were intolerant to ursodeoxycholic acid (no treatment for at least 3 months).
In this double-blind, placebo-controlled, phase 3 trial, participants with an inadequate response or intolerance to ursodeoxycholic acid were randomized 2:1 to receive elafibranor 80 mg or placebo once daily. Participants receiving stable doses of ursodeoxycholic acid for at least three months prior to enrollment continued their treatment regimen throughout the trial. The overall double-blind treatment period consisted of two parts. In part one, all randomized patients received a minimum of 52 weeks of double-blind treatment. In part two, participants continued to receive double-blind treatment beyond Week 52 in a variable treatment period until all participants had completed their Week 52 assessment or until a maximum treatment duration of 104 weeks, whichever came first. The first database lock occurred after the last participant completed its Week 52 visit in the double-blind period. At the end of the double-blind period (lasting 52 to 104 weeks), participants could optionally enter an open-label extension where they would receive elafibranor 80 mg for up to five years.
From September 2020 through May 2023, 161 participants were randomly assigned to receive elafibranor 80 mg (108 participants) or placebo (53 participants); these participants made up the intent-to-treat (ITT) and safety populations. The pruritus intent-to-treat population included 66 participants with moderate-to-severe pruritus (44 receiving elafibranor, 22 receiving placebo).
The Patient Reported Outcome Measurement Information System (PROMIS®) is the product of a massive effort begun in 2004 and based on modern measurement theory, to address the need to develop precise, consensus measures of health outcome, including fatigue, suitable for use across chronic diseases in particular PBC. The PROMIS Fatigue Short Form 7a (PROMIS Fatigue SF 7a) is a seven-item questionnaire derived from the 95-item PROMIS Fatigue item bank. […]

Series [2] deals with serum alkaline phosphatase (ALP). The experiment in a line: serum ALP change in phase 3 study on PBC (ELATIVE). It counts as in vivo, human. Particulars: elafibranor 80 mg treatment group; PBC (placebo 3.2%).
Series [3] has as its system patients with PBC. The experiment in a line: safety and tolerability in PBC patients. Type of series: in vivo, human.
Series [4] relates to patients with PBC. Particulars: cited from earlier work.
Setting [5] is: Week 4, Pruritus ITT analysis set.
The mark [6] stands for this setting: Week 13, Pruritus ITT analysis set.
The mark [7] stands for this setting: Week 26, Pruritus ITT analysis set.
The mark [8] stands for this setting: Week 39, Pruritus ITT analysis set.
Where [9] appears, read: Week 52, Pruritus ITT analysis set.

Consider `CSc1ccc(C(=O)C=Cc2cc(C)c(OC(C)(C)C(=O)O)c(C)c2)cc1` [Elafibranor, 2-(2,6-dimethyl-4-{3-[4-(methylsulfanyl)phenyl]-3-oxopropen-1-yl}phenoxy)-2-methylpropanoic acid], for which, in series [1] (80 mg daily, participants with PBC), the “effect on fatigue (PROMIS Fatigue SF 7a) compared to placebo, in words” value was “significative reduction; also recorded: improvement in fatigue”. Further, the “Change from baseline in PROMIS Fatigue T-score, mean” value was −1.66 in series [1] (Week 4, ITT analysis set); −2.86 in series [1] (setting [5]); −2.24 in series [1] (Week 13, ITT analysis set); −3.54 in series [1] (setting [6]); −2.23 in series [1] (Week 26, ITT analysis set); −3.50 in series [1] (setting [7]). The “Change from baseline in PROMIS Fatigue T-score, mean” value in series [1] (Week 39, ITT analysis set) is reported as −2.41; in series [1] (setting [8]) it was −4.54; in series [1] (Week 52, ITT analysis set), −2.75; in series [1] (setting [9]) it was −4.58. For the same compound, the “Change from baseline in PROMIS Fatigue T-score, median” value in series [1] (Week 4, ITT analysis set) was −1.60; in series [1] (setting [5]), −2.70; in series [1] (Week 13, ITT analysis set), −1.50; in series [1] (Week 26, ITT analysis set) it was −1.55; in series [1] (setting [7]), −3.20; in series [1] (Week 39, ITT analysis set), −1.45. Moreover, the “Change from baseline in PROMIS Fatigue T-score, median” value is −4.05 in series [1] (setting [8]); −2.80 in series [1] (Week 52, ITT analysis set); −4.20 in series [1] (setting [9]). Further, the “Change from baseline in PROMIS Fatigue T-score, LS means (MMRM)” value in series [1] (Week 13, ITT analysis set) is on record as −2.16; in series [1] (setting [6]) it was −3.50; in series [1] (Week 52, ITT analysis set), −2.45; in series [1] (setting [9]) it was −4.53. The “Change from baseline in PROMIS Fatigue T-score, LS means difference with placebo (MMRM)” value is −2.11 in series [1] (Week 13, ITT analysis set); −3.15 in series [1] (setting [6]); −1.23 in series [1] (Week 52, ITT analysis set); −3.77 in series [1] (setting [9]). The “PROMIS Fatigue T-score, observed mean” value was 53.63 in series [1] (Week 13, ITT analysis set); 57.49 in series [1] (setting [6]); 53.70 in series [1] (Week 52, ITT analysis set); 56.23 in series [1] (setting [9]). Moreover, the “PROMIS Fatigue T-score, observed median” value in series [1] (Week 13, ITT analysis set) is recorded as 52.95; in series [1] (setting [6]), 59.20; in series [1] (Week 52, ITT analysis set), 53.70; in series [1] (setting [9]), 56.45. The “mean relative change from baseline to endpoint in serum ALP” value in series [2] is given as −48.3%. Moreover, in series [3], the safety and tolerability entry is “safe and well-tolerated”.
As for `CC[C@H]1[C@@H](O)[C@@H]2[C@H](CC[C@]3(C)[C@@H]([C@H](C)CCC(=O)O)CC[C@@H]23)[C@@]2(C)CC[C@@H](O)C[C@@H]12` [OCA, obeticholic acid], in series [4], the “fatigue as side effect of treatment” value was “one of the most common side effects”.
